In patent publication US4663342A, “Pharmaceutical composition and method for immunopotentiation” (Zaidan Hojin Biseibutsu Kagaku Kenkyu Kai, priority 1984, dated 1987):

Assays:
[1] = test system: mice bearing Ascites Sarcoma 180 tumor; experiment: D.T.H. response to picryl chloride (ear thickness) in tumor-bearing mice; assay type: in vivo; settings: for Increase in ear thickness: 24 h after picryl chloride challenge; for T/C (%): ear thickness increase vs control = 100%
Procedure: In mice bearing Ascites Sarcoma 180 tumor, the effect of actinonin on the D.T.H. response to picryl chloride was investigated. 10^6 Cells of Ascites Sarcoma 180 were transplanted intraperitoneally into CDF1 mice (12-week-old, female, 5 mice per group). The day of this transplantation was designated as Day 0. […] Then, 5.0 mg/kg, 0.5 mg/kg, 0.05 mg/kg or 0.005 mg/kg of actinonin dissolved in physiological saline was orally administered once daily from Day 1 to Day 8, except that on Days 5 and 6 the test compound was not administered. During this period of Day 1 to Day 8, the control group of mice (untreated) was given physiological saline only. On day 8, the right ear was challenged with 20 μl of a 1% olive oil solution of picryl chloride which was absorbed to an absorbent cotton mass cut to a size of 10 mm×5 mm×1 mm. Twenty-four hours after the challenge, the thickness of the ear was measured with a dial gauge. On the other hand, the control animals (untreated) were challenged on Day 8 with picryl chloride and physiological saline in accordance with the same procedure, but without having been treated with the test compound, and the thickness of the ear of the control animals was measured in the same way. The increase in the thickness of ear for the control group of mice was evaluated to be 100%. The increase (T) in the thickness of the ear for the group of mice treated with the test compound was compared with that (C) for the control group of mice to evaluate the rate (T/C, %) of the increase in the thickness of the ear, whereby the cellular immunity-potentiating activity of the compound under test was estimated.

[2] = test system: CDF1 mice immunized with sheep red blood cells (SRBC); experiment: Delayed Type Hypersensitivity (D.T.H.) footpad test in normal mice immunized with SRBC; assay type: in vivo; settings: for Increase in footpad thickness: 24 h after SRBC challenge; for T/C (%): footpad thickness increase vs control = 100%
Procedure: Effect of actinonin on the cellular immunity was investigated by measuring the Delayed Type Hypersensitivity (D.T.H.) (see […] and T. E. Miller: "J. Exp. Med.", 139, 1529-1539 (1974)) using mice immunized with sheep red blood cells (SRBC) as the antigen inoculated to the footpad of the mice. Thus, 10^8 SRBC suspended in 0.05 ml of physiological saline was inoculated by subcutaneous injection into a subdermal site of a hind footpad of CDF1 mice (6 mice per group, female, 8-weeks old) to make immunization. At the time of this immunization, an aqueous solution containing 5 mg/kg, 0.5 mg/kg, 0.05 mg/kg or 0.005 mg/kg of actinonin was administered intraperitoneally at a single dose to each test mice. 4 Days after the immunization, 10^8 SRBC in 0.05 ml of physiological saline were injected subcutaneously into the other hind footpad of the test mice for secondary challenge of the D.T.H. response. 24 Hours after the challenge, the thickness (in mm) of the hind footpad having received the challenge of SRBC was measured with vernier caliper. At the same time, the thickness of footpad of control mice which had received the injection of the SRBC and physiological saline without the administration of the test compound was also measured in each mouse. The increase in footpad thickness of the animals treated was calculated by the following equation: [formula] The effect of actinonin on the DTH response was evaluated by the following equation: [formula] […] In this way, the cell-mediated immunity potentiating effect of the test compound was evaluated. For comparison purpose, bestatin was also tested in the same manner as above.

gram-positive bacteria = settings: against gram-positive bacteria; cited from earlier work
mice = experiment: Acute toxicity test in mice by intravenous injection; assay type: in vivo; settings: i.v. dosage of 400 mg/kg
Procedure: Acute toxicity tests in mice by intravenous injection have shown that no deaths are caused by the actinonin compound of the formula (I) at an i.v. dosage of 400 mg/kg. […] The actinonin compound of the formula (I) is therefore useful as an immunopotentiator and anti-tumor immunomodulator or as adjuvants to various chemotherapeutic agents for use in the treatment of carcinomas.

[3] = 0.5 mg/kg orally once daily Day 1 to Day 8 (not Days 5, 6)
[4] = 0.5 mg/kg i.p. single dose at immunization

Row | SMILES | Increase in ear thickness [1, 3] | T/C (%) ([1]; 0.5 mg/kg orally once daily) | Increase in footpad thickness [2, 4] | T/C (%) ([2]; 0.5 mg/kg i.p. single dose) | Increase in ear thickness ([1]; 0.005 mg/kg orally once daily Day 1 to Day 8 (not Days 5, 6)) | T/C (%) ([1]; 0.005 mg/kg orally once daily) | Increase in ear thickness ([1]; 0.05 mg/kg orally once daily Day 1 to Day 8 (not Days 5, 6)) | T/C (%) ([1]; 0.05 mg/kg orally once daily) | Increase in ear thickness ([1]; 5 mg/kg orally once daily Day 1 to Day 8 (not Days 5, 6)) | T/C (%) ([1]; 5 mg/kg orally once daily) | Antibacterial activity (gram-positive bacteria) | Deaths in acute toxicity test (mice) | Increase in footpad thickness ([2]; 0.005 mg/kg i.p. single dose at immunization) | T/C (%) ([2]; 0.005 mg/kg i.p. single dose) | Increase in footpad thickness ([2]; 0.05 mg/kg i.p. single dose at immunization) | T/C (%) ([2]; 0.05 mg/kg i.p. single dose) | Increase in footpad thickness ([2]; 5 mg/kg i.p. single dose at immunization) | T/C (%) ([2]; 5 mg/kg i.p. single dose)
1 | CC(C)C[C@H](NC(=O)[C@@H](O)[C@H](N)Cc1ccccc1)C(=O)O [Bestatin, reference compound] | 6.75 ± 1.51 × 10^-3 cm | 139.2% | 12.8 ± 1.47 × 0.1 mm | 149% |  |  |  |  |  |  |  |  |  |  |  |  |  | 
2 | CCCCC[C@H](CC(=O)NO)C(=O)N[C@H](C(=O)N1CCC[C@H]1CO)C(C)C [Actinonin] | 7.08 ± 1.66 × 10^-3 cm | 146.0% | 11.4 ± 1.80 × 0.1 mm | 133% | 4.70 ± 0.67 × 10^-3 cm | 96.9% | 6.80 ± 0.84 × 10^-3 cm | 140.2% | 4.60 ± 1.19 × 10^-3 cm | 94.8% | exhibits antibacterial activity | no deaths | 9.2 ± 1.15 × 0.1 mm | 107% | 10.4 ± 1.40 × 0.1 mm | 121% | 11.9 ± 1.44 × 0.1 mm | 138%
